“And” between values parts separate entries of the source, which are not always exact repeats. Equal entries are not always repeated. Ends that are not written are not given here.
Columns and labels:
[1] = Calcein dye leakage assay from LUVs; type: biochemical; conditions: P:L 1:100; pH 7.4
Summary of the method: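 POPC:POPG (1:1) LUVs, extruded at 100 nm, loaded with 35 mM self-quenching calcein; free dye removed. Peptide 0.1 mM and LUVs 0.02 mM in PBS with 100 mM NaCl, P:L 1:100 to 1:10. Fluorescence at 495/520 nm, normalized to 100% leakage by 10% Triton X-100.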

E. coli (TOP10) = assay: Broth microdilution antimicrobial susceptibility assay; type: cell-based, Escherichia coli
Summary of the method: (§1)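 Bacteria were grown on MHA for 24 h, subcultured in MHB for 6 h at 37 °C and diluted to 10^6 CFU/mL. Compounds were serially diluted from 50 to 0.1 μM, inoculated and incubated for 24 h at 37 °C. MIC was the lowest concentration with no visible turbidity.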

S. carnosus (CCM 4838T) = assay: microbe, parasite or virus in culture; type: cell-based, Staphylococcus carnosus; conditions: CCM 4838, 24 h; read-out: Antimicrobial activity (MIC) S. carnosus (CCM 4838T)
Summary of the method: as §1

[2] = system: A. baumannii (ATCC 19606); assay: Neutropenic murine deep thigh infection model; type: in vivo, mouse; conditions: single intraperitoneal dose at 10 times the MIC; four days after treatment
From the text: Mice were euthanized 4 days postinfection (day 8).
Each experimental group comprised three mice.

[3] = system: cytoplasmic membranes of ESKAPEE pathogens; assay: Cytoplasmic membrane depolarization assay, DiSC3-(5); type: cell-based; conditions: both Gram-negative and Gram-positive bacteria; peptides at their MICs
Method: First, we investigated the ability of the peptides to depolarize the cytoplasmic membranes of ESKAPEE pathogens. […] Bacteria were incubated with 3,3′-dipropylthiadicarbocyanine iodide [DiSC3-(5)] dye, and the dye fluorescence was measured after peptide treatment. DiSC3-(5) is sensitive to transmembrane potential changes. It accumulates in the cytoplasmic membrane with quenched fluorescence, and when the membrane potential becomes unbalanced, the dye molecules translocate to the outside environment, resulting in increased fluorescence.[56] The three potent AMPs (LP1, LP18, and LP28) and the H-variant (LP40) depolarized the cytoplasmic membrane of both Gram-negative and Gram-positive bacteria at their MICs.
The cytoplasmic membrane depolarization activity of the peptides was determined by measuring the fluorescence of membrane-potential-sensitive dye DiSC3-(5). A. baumannii ATCC 19606, E. coli ATCC 11775, K. pneumoniae ATCC 13883, P. aeruginosa PAO1, S. aureus ATCC 12600, and E. faecium ATCC 700221 were grown to mid log phase (OD600 = 0.5) at 37 °C and then centrifuged (10,000 rpm at 4 °C for 10 min). Cells were washed twice with a buffer containing 20 mM glucose and 5 mM HEPES (pH 7.2) and diluted 1:10 (OD600 = 0.05) in a buffer with 0.1 M KCl, […], and 5 mM HEPES (pH 7.2). Fluorescence was recorded at the excitation and emission wavelengths of 622 and 670 nm, respectively. Bacterial solution (100 μL) was incubated for 15 min with 20 nM of DiSC3-(5) until fluorescence reached a plateau. Changes in transmembrane potential were monitored by observing the difference in fluorescence emission intensity after adding peptides (100 μL at their MICs) for 45 min. Assay was performed in triplicate.

[4] = system: MOLM-13, MEC-1 and SU-DHL-4 cancer cell lines; conditions: 24 h
Method: Anticancer activity of peptides against acute myeloid leukemia MOLM-13, chronic lymphocytic leukemia MEC-1, and diffuse large B-cell lymphoma SU-DHL-4 cell lines was tested using a WST cell viability assay. Cells were cultured in 75 cm^2 culture flasks at 37 °C in 5% CO2 according to the DSMZ recommendations before the start of the experiment. Then, the cells were seeded into 96-well plates in quadruplicate at 2.5 × 10^4 cells/well for SU-DHL-4, and 5 × 10^4 cells/well for MEC-1 and MOLM-13. Cells were treated with either peptides or PBS alone (negative control) for 24–72 h at 37 °C in 5% CO2. After incubation, cell viability was measured by WST-1 (Roche) according to the manufacturer’s instructions using Tecan microplate reader Infinite M200 PRO Plex and expressed as percentage compared to control.

Substance	Calcein leakage (%) from LUVs at P:L 1:100 (mol/mol) [1]	pH dependence of antimicrobial activity (E. coli (TOP10); pH 8 and 6)	MIC (S. carnosus (CCM 4838T)) [µM]	Reduction of bacterial load [2]	Depolarization of the cytoplasmic membrane [3]	MIC (E. coli (TOP10); 24 h, MHB) [µM]	MIC against E. coli (TOP10) (E. coli (TOP10); TOP10, 24 h, pH 6) [µM]	IC50 [4] [µM]
KKKKLKKILKKLFQFINQLDNQLQDIKKKK-NH2 [LP18]	93.7 ± 3.1%	independent of pH	0.2	did not significantly reduce the bacterial load	depolarized			
H-HHHHLKKILKKLFQFINQLDNQLQDIHHHH-OH [LP40]	102.5 ± 1.2%		> 50	did not significantly reduce the bacterial load	depolarized	> 50	0.4	1 to 20
KKKKLKKILKKLFQFINQLDNQLQDIKQNK-NH2 [LP1]	87% and 87.1 ± 2.7%		0.8	two to three orders of magnitude	depolarized			< 10

Reference: paper PMC11345766, “Computational Design of Pore-Forming Peptides with Potent Antimicrobial and Anticancer Activities” (Journal of Medicinal Chemistry, 2024)
